Measurements as given in ChEMBL document CHEMBL1201862, “PubChem BioAssay data set” (2004).
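1) Cells in 96-well plates. 2) Compound, 48 h, 5 concentrations. 3) Linear interpolation between surrounding doses. 4) Unreached endpoint = highest concentration. Here, GI50 denotes the concentration required for 50% inhibition of growth.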 Calls of active or inactive are those of the source. Rule as the data show it: active = GI50 up to about 1.1 µM and inactive = higher.

Columns and labels:
Experiment in all cases: NCI tumour cell line growth inhibition, 48 h
HOP-92 = system: HOP-92
CCRF-CEM = system: CCRF-CEM
EKVX = system: EKVX
KM12 = system: KM12
CAKI-1 = system: CAKI-1
NCI-H522 = system: NCI-H522
XF498 = system: XF498
RXF 631 = system: RXF 631
SN12C = system: SN12C
SK-MEL-5 = system: SK-MEL-5
MOLT-4 = system: MOLT-4
HOP-18 = system: HOP-18
A498 = system: A498
SNB-19 = system: SNB-19
Malme-3M = system: Malme-3M
786-0 = system: 786-0
SK-MEL-2 = system: SK-MEL-2
SK-OV-3 = system: SK-OV-3
OVCAR-5 = system: OVCAR-5
K562 = system: K562
HT-29 = system: HT-29
UO-31 = system: UO-31
M14 = system: M14
NCI-H23 = system: NCI-H23
COLO 205 = system: COLO 205
RPMI-8226 = system: RPMI-8226
NCI-H226 = system: NCI-H226
LXFL 529 = system: LXFL 529
ACHN = system: ACHN
M19-MEL = system: M19-MEL
DMS-273 = system: DMS-273
SW-620 = system: SW-620
KM-20L2 = system: KM-20L2
A549 = system: A549
SF-295 = system: SF-295
OVCAR-8 = system: OVCAR-8
UACC-257 = system: UACC-257
HCT-15 = system: HCT-15
IGROV-1 = system: IGROV-1
DLD-1 = system: DLD-1
NCI-H460 = system: NCI-H460
SF-539 = system: SF-539
TK-10 = system: TK-10
RXF 393 = system: RXF 393
U-251 = system: U-251
OVCAR-3 = system: OVCAR-3
UACC-62 = system: UACC-62
LOX IMVI = system: LOX IMVI
HL-60 = system: HL-60
OVCAR-4 = system: OVCAR-4
DMS-114 = system: DMS-114
NCI/ADR-RES = system: NCI/ADR-RES
HOP-62 = system: HOP-62
MDA-N = system: MDA-N
T47D = system: T47D
MDA-MB-231 = system: MDA-MB-231
SNB-75 = system: SNB-75
HCC 2998 = system: HCC 2998
Hs-578T = system: Hs-578T
HCT-116 = system: HCT-116
DU-145 = system: DU-145
PC-3 = system: PC-3
SR = system: SR
MCF7 = system: MCF7
MDA-MB-435 = system: MDA-MB-435
BT-549 = system: BT-549
SF-268 = system: SF-268
SK-MEL-28 = system: SK-MEL-28
SNB-78 = system: SNB-78

O=C(O)CN(c1ccccc1)S(=O)(=O)c1ccc([N+](=O)[O-])cc1
GI50 (HOP-92): > 100 µM (inactive)
GI50 (CCRF-CEM): > 100 µM (inactive)
GI50 (EKVX): > 100 µM (inactive)
GI50 (KM12): > 100 µM (inactive)
GI50 (CAKI-1): > 100 µM (inactive)
GI50 (NCI-H522): > 100 µM (inactive)
GI50 (XF498): > 100 µM (inactive)
GI50 (RXF 631): > 100 µM (inactive)
GI50 (SN12C): > 100 µM (inactive)
GI50 (SK-MEL-5): > 100 µM (inactive)
GI50 (MOLT-4): > 100 µM (inactive)
GI50 (HOP-18): > 100 µM (inactive)
GI50 (A498): > 100 µM (inactive)
GI50 (SNB-19): > 100 µM (inactive)
GI50 (Malme-3M): > 100 µM (inactive)
GI50 (786-0): > 100 µM (inactive)
GI50 (SK-MEL-2): > 100 µM (inactive)
GI50 (SK-OV-3): > 100 µM (inactive)
GI50 (OVCAR-5): > 100 µM (inactive)
GI50 (K562): > 100 µM (inactive)
GI50 (HT-29): > 100 µM (inactive)
GI50 (UO-31): > 100 µM (inactive)
GI50 (M14): > 100 µM (inactive)
GI50 (NCI-H23): > 100 µM (inactive)
GI50 (COLO 205): > 100 µM (inactive)
GI50 (RPMI-8226): > 100 µM (inactive)
GI50 (NCI-H226): > 100 µM (inactive)
GI50 (LXFL 529): > 100 µM (inactive)
GI50 (ACHN): > 100 µM (inactive)
GI50 (M19-MEL): > 100 µM (inactive)
GI50 (DMS-273): > 100 µM (inactive)
GI50 (SW-620): > 100 µM (inactive)
GI50 (KM-20L2): > 100 µM (inactive)
GI50 (A549): > 100 µM (inactive)
GI50 (SF-295): > 100 µM (inactive)
GI50 (OVCAR-8): > 100 µM (inactive)
GI50 (UACC-257): > 100 µM (inactive)
GI50 (HCT-15): > 100 µM
GI50 (IGROV-1): > 100 µM (inactive)
GI50 (DLD-1): > 100 µM (inactive)
GI50 (NCI-H460): > 100 µM (inactive)
GI50 (SF-539): > 100 µM (inactive)
GI50 (TK-10): > 100 µM (inactive)
GI50 (RXF 393): > 100 µM (inactive)
GI50 (U-251): > 100 µM (inactive)
GI50 (OVCAR-3): > 100 µM (inactive)
GI50 (UACC-62): > 100 µM (inactive)
GI50 (LOX IMVI): > 100 µM (inactive)
GI50 (HL-60): > 100 µM (inactive)
GI50 (OVCAR-4): > 100 µM (inactive)

CC[C@](O)(C(=O)O)c1cc2n(c(=O)c1CO)Cc1cc3ccccc3nc1-2
GI50 (DMS-114): 0.025 µM (active)
GI50 (HOP-92): 0.112 µM (active)
GI50 (CCRF-CEM): 0.025 µM (active)
GI50 (EKVX): 0.0371 µM (active)
GI50 (CAKI-1): 0.025 µM (active)
GI50 (NCI-H522): 0.0306 µM (active)
GI50 (XF498): 0.0968 µM (active)
GI50 (NCI/ADR-RES): 0.0254 µM (active)
GI50 (HOP-62): 0.0025 µM (active)
GI50 (RXF 631): 0.084 µM (active)
GI50 (SN12C): 0.025 µM (active)
GI50 (SK-MEL-5): 0.0333 µM (active)
GI50 (MOLT-4): 0.0257 µM (active)
GI50 (HOP-18): 0.0436 µM (active)
GI50 (A498): 0.0398 µM (active)
GI50 (SNB-19): 0.025 µM (active)
GI50 (Malme-3M): 0.0975 µM (active)
GI50 (786-0): 0.00366 µM (active)
GI50 (SK-MEL-2): 0.23 µM (active)
GI50 (SK-OV-3): 0.0372 µM (active)
GI50 (MDA-N): 0.0373 µM (active)
GI50 (OVCAR-5): 0.0566 µM (active)
GI50 (T47D): 0.0324 µM (active)
GI50 (HT-29): 0.0461 µM (active)
GI50 (UO-31): 0.0372 µM (active)
GI50 (M14): 0.00292 µM (active)
GI50 (NCI-H23): 0.025 µM (active)
GI50 (MDA-MB-231): 0.665 µM (active)
GI50 (COLO 205): 0.234 µM (active)
GI50 (SNB-75): 0.0333 µM (active)
GI50 (LXFL 529): 0.692 µM (active)
GI50 (ACHN): 0.0025 µM (active)
GI50 (HCC 2998): 0.324 µM (active)
GI50 (Hs-578T): 6.05 µM (inactive)
GI50 (M19-MEL): 0.0336 µM (active)
GI50 (HCT-116): 0.0308 µM (active)
GI50 (DMS-273): 0.025 µM (active)
GI50 (DU-145): 0.0137 µM (active)
GI50 (PC-3): 0.131 µM (active)
GI50 (KM-20L2): 0.0535 µM (active)
GI50 (A549): 0.0261 µM (active)
GI50 (SR): 0.01 µM (active)
GI50 (SF-295): 0.025 µM (active)
GI50 (HCT-15): 0.0964 µM
GI50 (IGROV-1): 0.0652 µM (active)
GI50 (NCI-H460): 0.025 µM (active)
GI50 (MCF7): 0.061 µM (active)
GI50 (SF-539): 0.0697 µM (active)
GI50 (MDA-MB-435): 0.0532 µM (active)
GI50 (TK-10): 0.282 µM (active)
GI50 (RXF 393): 0.0384 µM (active)
GI50 (U-251): 0.025 µM (active)
GI50 (UACC-62): 0.025 µM (active)
GI50 (HL-60): 0.025 µM (active)
GI50 (BT-549): 0.0791 µM (active)
GI50 (OVCAR-4): 0.214 µM (active)

CCOc1ccccc1N1C(=O)C(=O)C(c2nc3ccccc3o2)C(=O)C1=O
GI50 (DMS-114): > 100 µM (inactive)
GI50 (HOP-92): > 100 µM (inactive)
GI50 (CCRF-CEM): > 100 µM (inactive)
GI50 (EKVX): 71.9 µM (inactive)
GI50 (CAKI-1): 66.8 µM (inactive)
GI50 (NCI-H522): > 100 µM (inactive)
GI50 (HOP-62): > 100 µM (inactive)
GI50 (RXF 631): > 100 µM (inactive)
GI50 (SN12C): 93.8 µM (inactive)
GI50 (SK-MEL-5): > 100 µM (inactive)
GI50 (MOLT-4): > 100 µM (inactive)
GI50 (HOP-18): 28.7 µM (inactive)
GI50 (A498): 48.6 µM (inactive)
GI50 (SNB-19): > 100 µM (inactive)
GI50 (Malme-3M): > 100 µM (inactive)
GI50 (786-0): 21.2 µM (inactive)
GI50 (SK-MEL-2): > 100 µM (inactive)
GI50 (SK-OV-3): 28.6 µM (inactive)
GI50 (OVCAR-5): > 100 µM (inactive)
GI50 (K562): > 100 µM (inactive)
GI50 (HT-29): > 100 µM (inactive)
GI50 (UO-31): 61.5 µM (inactive)
GI50 (M14): > 100 µM (inactive)
GI50 (NCI-H23): > 100 µM (inactive)
GI50 (SF-268): > 100 µM (inactive)
GI50 (COLO 205): > 100 µM (inactive)
GI50 (SK-MEL-28): > 100 µM (inactive)
GI50 (RPMI-8226): > 100 µM (inactive)
GI50 (NCI-H226): > 100 µM (inactive)
GI50 (SNB-75): 42.6 µM (inactive)
GI50 (LXFL 529): > 100 µM (inactive)
GI50 (ACHN): 28.3 µM (inactive)
GI50 (HCC 2998): > 100 µM (inactive)
GI50 (M19-MEL): > 100 µM (inactive)
GI50 (HCT-116): 70.5 µM (inactive)
GI50 (DMS-273): > 100 µM (inactive)
GI50 (SW-620): > 100 µM (inactive)
GI50 (KM-20L2): > 100 µM (inactive)
GI50 (A549): 48.6 µM (inactive)
GI50 (SR): > 100 µM (inactive)
GI50 (SF-295): 20.8 µM (inactive)
GI50 (OVCAR-8): 70.5 µM (inactive)
GI50 (UACC-257): > 100 µM (inactive)
GI50 (HCT-15): > 100 µM
GI50 (IGROV-1): > 100 µM (inactive)
GI50 (DLD-1): > 100 µM (inactive)
GI50 (SNB-78): > 100 µM (inactive)
GI50 (SF-539): > 100 µM (inactive)
GI50 (TK-10): 39.7 µM (inactive)
GI50 (U-251): > 100 µM (inactive)
GI50 (OVCAR-3): > 100 µM (inactive)
GI50 (UACC-62): > 100 µM (inactive)
GI50 (LOX IMVI): > 100 µM (inactive)
GI50 (HL-60): > 100 µM (inactive)
GI50 (OVCAR-4): 15.7 µM (inactive)
